{"source": "PubChem BioAssay (NCI)", "assay_in_all_cases": "inhibition of tumour cell growth, NCI panel, 48 h", "key": {"NCI-H460 lung": {"test_system": "NCI-H460 lung"}, "NCI-H522 lung": {"test_system": "NCI-H522 lung"}, "NCI/ADR-RES ovarian": {"test_system": "NCI/ADR-RES ovarian"}, "OVCAR-3 ovarian": {"test_system": "OVCAR-3 ovarian"}, "OVCAR-4 ovarian": {"test_system": "OVCAR-4 ovarian"}, "OVCAR-5 ovarian": {"test_system": "OVCAR-5 ovarian"}, "OVCAR-8 ovarian": {"test_system": "OVCAR-8 ovarian"}, "PC-3 prostate": {"test_system": "PC-3 prostate"}, "RPMI-8226 leukemia": {"test_system": "RPMI-8226 leukemia"}, "RXF 393 renal": {"test_system": "RXF 393 renal"}, "SF-268 CNS": {"test_system": "SF-268 CNS"}, "SF-295 CNS": {"test_system": "SF-295 CNS"}, "SF-539 CNS": {"test_system": "SF-539 CNS"}, "SK-MEL-2 melanoma": {"test_system": "SK-MEL-2 melanoma"}, "SK-MEL-28 melanoma": {"test_system": "SK-MEL-28 melanoma"}, "SK-MEL-5 melanoma": {"test_system": "SK-MEL-5 melanoma"}, "SK-OV-3 ovarian": {"test_system": "SK-OV-3 ovarian"}, "SN12C renal": {"test_system": "SN12C renal"}, "SNB-19 CNS": {"test_system": "SNB-19 CNS"}, "SNB-75 CNS": {"test_system": "SNB-75 CNS"}, "SR leukemia": {"test_system": "SR leukemia"}, "SW-620 colon": {"test_system": "SW-620 colon"}, "TK-10 renal": {"test_system": "TK-10 renal"}, "U251 CNS": {"test_system": "U251 CNS"}, "UACC-257 melanoma": {"test_system": "UACC-257 melanoma"}, "UACC-62 melanoma": {"test_system": "UACC-62 melanoma"}, "UO-31 renal": {"test_system": "UO-31 renal"}}, "note": "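Protocol summary: plate cells (96-well), add compound at 5 concentrations, incubate 48 h, interpolate endpoints linearly. At the GI50, growth is halved. Definition used: TGI = concentration required for complete inhibition of growth.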", "data": [{"compound": "CC1(C)Cc2cccc(OCC(O)CN3CCN(c4ccc(F)cc4)CC3)c2O1", "note": "(centres undefined)", "values": [{"measurement": "GI50", "setting": "NCI-H460 lung", "value": 15.3, "unit": "µM"}, {"measurement": "TGI", "setting": "NCI-H460 lung", "value": "> 50", "unit": "µM"}, {"measurement": "GI50", "setting": "NCI-H522 lung", "value": 47.8, "unit": "µM"}, {"measurement": "TGI", "setting": "NCI-H522 lung", "value": "> 50", "unit": "µM"}, {"measurement": "GI50", "setting": "NCI/ADR-RES ovarian", "value": 12.2, "unit": "µM"}, {"measurement": "TGI", "setting": "NCI/ADR-RES ovarian", "value": 45.6, "unit": "µM"}, {"measurement": "GI50", "setting": "OVCAR-3 ovarian", "value": 22.9, "unit": "µM"}, {"measurement": "TGI", "setting": "OVCAR-3 ovarian", "value": "> 50", "unit": "µM"}, {"measurement": "GI50", "setting": "OVCAR-4 ovarian", "value": 13.3, "unit": "µM"}, {"measurement": "TGI", "setting": "OVCAR-4 ovarian", "value": "> 50", "unit": "µM"}, {"measurement": "GI50", "setting": "OVCAR-5 ovarian", "value": 22.1, "unit": "µM"}, {"measurement": "TGI", "setting": "OVCAR-5 ovarian", "value": "> 50", "unit": "µM"}, {"measurement": "GI50", "setting": "OVCAR-8 ovarian", "value": 18.2, "unit": "µM"}, {"measurement": "TGI", "setting": "OVCAR-8 ovarian", "value": "> 50", "unit": "µM"}, {"measurement": "GI50", "setting": "PC-3 prostate", "value": 14, "unit": "µM"}, {"measurement": "TGI", "setting": "PC-3 prostate", "value": "> 50", "unit": "µM"}, {"measurement": "GI50", "setting": "RPMI-8226 leukemia", "value": 9.18, "unit": "µM"}, {"measurement": "TGI", "setting": "RPMI-8226 leukemia", "value": 26.2, "unit": "µM"}, {"measurement": "GI50", "setting": "RXF 393 renal", "value": 8.33, "unit": "µM"}, {"measurement": "TGI", "setting": "RXF 393 renal", "value": 22.6, "unit": "µM"}, {"measurement": "GI50", "setting": "SF-268 CNS", "value": 18, "unit": "µM"}, {"measurement": "TGI", "setting": "SF-268 CNS", "value": "> 50", "unit": "µM"}, {"measurement": "GI50", "setting": "SF-295 CNS", "value": 8.83, "unit": "µM"}, {"measurement": "TGI", "setting": "SF-295 CNS", "value": 39.9, "unit": "µM"}, {"measurement": "GI50", "setting": "SF-539 CNS", "value": 13, "unit": "µM"}, {"measurement": "TGI", "setting": "SF-539 CNS", "value": 27.3, "unit": "µM"}, {"measurement": "GI50", "setting": "SK-MEL-2 melanoma", "value": 27, "unit": "µM"}, {"measurement": "TGI", "setting": "SK-MEL-2 melanoma", "value": "> 50", "unit": "µM"}, {"measurement": "GI50", "setting": "SK-MEL-28 melanoma", "value": 19.1, "unit": "µM"}, {"measurement": "TGI", "setting": "SK-MEL-28 melanoma", "value": "> 50", "unit": "µM"}, {"measurement": "GI50", "setting": "SK-MEL-5 melanoma", "value": 6.99, "unit": "µM"}, {"measurement": "TGI", "setting": "SK-MEL-5 melanoma", "value": 13.9, "unit": "µM"}, {"measurement": "GI50", "setting": "SK-OV-3 ovarian", "value": 23.2, "unit": "µM"}, {"measurement": "TGI", "setting": "SK-OV-3 ovarian", "value": "> 50", "unit": "µM"}, {"measurement": "GI50", "setting": "SN12C renal", "value": 18.9, "unit": "µM"}, {"measurement": "TGI", "setting": "SN12C renal", "value": "> 50", "unit": "µM"}, {"measurement": "GI50", "setting": "SNB-19 CNS", "value": 31.7, "unit": "µM"}, {"measurement": "TGI", "setting": "SNB-19 CNS", "value": "> 50", "unit": "µM"}, {"measurement": "GI50", "setting": "SNB-75 CNS", "value": 10.9, "unit": "µM"}, {"measurement": "TGI", "setting": "SNB-75 CNS", "value": 34.2, "unit": "µM"}, {"measurement": "GI50", "setting": "SR leukemia", "value": 13.4, "unit": "µM"}, {"measurement": "TGI", "setting": "SR leukemia", "value": "> 50", "unit": "µM"}, {"measurement": "GI50", "setting": "SW-620 colon", "value": 14.3, "unit": "µM"}, {"measurement": "TGI", "setting": "SW-620 colon", "value": "> 50", "unit": "µM"}, {"measurement": "GI50", "setting": "TK-10 renal", "value": "> 50", "unit": "µM"}, {"measurement": "TGI", "setting": "TK-10 renal", "value": "> 50", "unit": "µM"}, {"measurement": "GI50", "setting": "U251 CNS", "value": 12.8, "unit": "µM"}, {"measurement": "TGI", "setting": "U251 CNS", "value": 39.8, "unit": "µM"}, {"measurement": "GI50", "setting": "UACC-257 melanoma", "value": 6.34, "unit": "µM"}, {"measurement": "TGI", "setting": "UACC-257 melanoma", "value": 16.9, "unit": "µM"}, {"measurement": "GI50", "setting": "UACC-62 melanoma", "value": 11.6, "unit": "µM"}, {"measurement": "TGI", "setting": "UACC-62 melanoma", "value": "> 50", "unit": "µM"}, {"measurement": "GI50", "setting": "UO-31 renal", "value": 13.5, "unit": "µM"}, {"measurement": "TGI", "setting": "UO-31 renal", "value": "> 50", "unit": "µM"}]}]}
